From patent US20260001914A1, “MACROCYCLIC PEPTIDES TARGETING KRAS” (Merck Sharp & Dohme LLC, priority 2022, published 2026)
*1 amine or outer side, *2 acyl side, *3 side chain or, on linkers, in order; H or OH if unused. Where a SMILES comes first, the peptide text is derived from it. Bridges are numbered along the chain shown (N, C = ends). [ ]: non-standard residue; d: D form. X34 = O=C(C[C@@H](Cc1ccccc1)C(=O)[*:2])C12CC(CN[*:1])(C1)C2; Phe(4-guanidino) = N=C(N)Nc1ccc(C[C@H](N)C(=O)O)cc1; X18 = CNC(=N)N(C)c1ccc(C[C@H](N[*:1])C(=O)[*:2])cc1; X19 = C[C@H](c1ccccc1)[C@@H](C(=O)[*:2])N(C)[*:1]; X23 = O=C([C@H](Cc1ccc(C(F)(F)F)nc1)N[*:1])[*:2]; Ala(pyrimidin-5-yl) = N[C@@H](Cc1cncnc1)C(=O)O; NMe3Pal(6-Me) = CN[C@@H](Cc1ccc(C)nc1)C(=O)O; X8 = CN([C@@H](Cc1ccc(F)nc1)C(=O)[*:2])[*:1]; NMePhe(3-Me) = CN[C@@H](Cc1cccc(C)c1)C(=O)O; X43 = CN([C@@H](Cc1cnccc1F)C(=O)[*:2])[*:1]; X45 = CN([C@@H](Cc1ccncc1F)C(=O)[*:2])[*:1]; X14 = O=C([C@H](Cc1c(F)cncc1F)N[*:1])[*:2]; X11 = CC(C)(F)CC[C@H](N[*:1])C(=O)[*:2]; X46 = O=C([C@H](Cc1cccnc1F)N[*:1])[*:2]; NMeAha = CN[C@@H](CCN=[N+]=[N-])C(=O)O; Nle(5,5-F2) = CC(F)(F)CC[C@H](N)C(=O)O; X32 = CS(=O)(=O)CCCN(CC(=O)[*:2])[*:1]; X35 = CN([C@@H](CCCF)C(=O)[*:2])[*:1]; Phe(2-F) = N[C@@H](Cc1ccccc1F)C(=O)O; X31 = O=C([C@H](CCC1CC1)N[*:1])[*:2]; NMe3Pal = CN[C@@H](Cc1cccnc1)C(=O)O; X1 = O=C(C12CC(CN[*:1])(C1)C2)[*:2]; Aha = [N-]=[N+]=NCC[C@H](N)C(=O)O; NMeOrn(Me) = CNCCC[C@H](NC)C(=O)O; Ala(cPr) = N[C@@H](CC1CC1)C(=O)O; NMeF = CN[C@@H](Cc1ccccc1)C(=O)O; PhLac = O=C(O)[C@@H](O)Cc1ccccc1; 3Pal = N[C@@H](Cc1cccnc1)C(=O)O; Ahp(2) = CCCCC[C@H](N)C(=O)O; Cba = N[C@@H](CC1CCC1)C(=O)O; NMeNle = CCCC[C@H](NC)C(=O)O; hLeu = CC(C)CC[C@H](N)C(=O)O; αMeC = C[C@](N)(CS)C(=O)O; NMeA = CN[C@@H](C)C(=O)O; Nle = CCCC[C@H](N)C(=O)O

biological target: phosphorylation levels of ERK1/2 in AsPC-1 (homozygous KRAS-G12D) cells (Homo sapiens, UniProt P01116, G12D); assay: Cellular phospho-ERK assay in AsPC-1 cells (Alpha Screen), assay medium without fetal bovine serum; type: cell-based; conditions: phospho-ERK AlphaScreen, 18 h;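 note: signal taken as phospho-ERK over total ERK per well, both detected in one multiplex bead assay, EC50 from four-parameter logistic fit of dose-response curves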
Sequence (P01116 1-186 G12D): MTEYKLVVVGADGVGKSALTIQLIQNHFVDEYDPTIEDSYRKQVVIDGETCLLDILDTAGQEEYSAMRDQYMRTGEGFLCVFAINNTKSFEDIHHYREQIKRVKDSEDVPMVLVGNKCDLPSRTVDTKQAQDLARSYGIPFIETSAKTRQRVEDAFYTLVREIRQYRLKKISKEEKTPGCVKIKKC
Description: Assay plate was incubated at 37° C. 5% CO2 for the indicated length of time. […] Phosphorylated ERK and total ERK levels were detected by Alpha SureFire Ultra Multiplex pERK kit (PerkinElmer MPSU-PTERK) using 5 μL, acceptor bead mix and 5 μL donor bead mix, both prepared following the manufacturer's protocol. Plates were sealed using aluminum sealing tape (Costar 07-200-683) during incubation at ambient temperature with constant shaking at 300 rpm for 1 h (both acceptor and donor). Assay plates were read on a Envision Xcite Multilabel Reader (PerkinElmer 1040900) at ambient temperature, with emission at 535 nm (Total ERK) and emission at 615 nm (Phospho ERK). Ratio of pERK vs total ERK in each well was used as the final readout. Dose response curves and EC50 were analyzed using a 4-parameter logistic equation in GraphPad Prism software.

Structure (SMILES) | EC50 [µM]
CCCCC[C@@H]1NC(=O)[C@H](Cc2ccc(OC)cc2)NC(=O)[C@H](CC2CCC2)NC(=O)[C@H](Cc2cccnc2)NC(=O)[C@H](CCCNC(=N)N)NC(=O)[C@H](Cc2ccccc2F)NC(=O)CSC[C@@](C)(C(N)=O)NC(=O)[C@H](Cc2ccccc2)N(C)C1=O [compound 370, cyclo(Phe2F-R-3Pal-cBuA-TyrOMe-Ahp-NMeF-aMeCl-ClAc)] | > 50.8
CC(C)CC[C@@H]1NC(=O)[C@H](Cc2c(F)cncc2F)NC(=O)[C@H](CC2CC2)NC(=O)[C@H](Cc2cncnc2)NC(=O)[C@H](C)N(C)C(=O)[C@H](Cc2ccccc2)OC(=O)C23CC(CNC(=O)[C@H](Cc4ccccc4)N(C)C1=O)(C2)C3 [compound 292, cyclo(FLac-NMeA-PyrimAla-cPrA-4Pal26F2-hL-NMeF-amBCP)] (cyclo([Ala(cPr)][X14][hLeu][NMeF][X1][PhLac][NMeA][Ala(pyrimidin-5-yl)])) | 14.5
C[C@H]1C(=O)N[C@@H](Cc2cncnc2)C(=O)N[C@@H](CC2CC2)C(=O)N[C@@H](Cc2ccccc2F)C(=O)N[C@@H](CCC2CC2)C(=O)N(C)[C@@H](Cc2ccccc2)C(=O)NCC23CC(C2)(C3)C(=O)O[C@@H](Cc2ccccc2)C(=O)N1C [compound 114, cyclo(FLac-NMeA-PyrimAla-cPrA-Phe2F-hcPrA-NMeF-amBCP)] (cyclo([Ala(cPr)][Phe(2-F)][X31][NMeF][X1][PhLac][NMeA][Ala(pyrimidin-5-yl)])) | 0.615
CCCC[C@@H]1NC(=O)[C@H](Cc2cccnc2)NC(=O)[C@H](C)N(C)C(=O)[C@H](Cc2ccccc2)OC(=O)CSC[C@@](C)(C(N)=O)NC(=O)[C@H](Cc2cccnc2)N(C)C(=O)[C@H](CCCC)NC(=O)[C@H](Cc2ccccc2F)NC1=O [compound 398, cyclo(FLac-NMeA-3Pal-Nlc-Phe2F-Nle-NMe3Pal-aMeCl-ClAc)] ({CH2CO}-[PhLac][NMeA][3Pal][Nle][Phe(2-F)][Nle][NMe3Pal][αMeC]-NH2; thioether N-8) | 40.7
CCCC[C@@H]1NC(=O)[C@H](C(C)C)NC(=O)[C@H](CC2CCC2)NC(=O)[C@H](Cc2cccnc2)NC(=O)[C@H](CCN=[N+]=[N-])NC(=O)[C@H](Cc2ccccc2)NC(=O)C23CC(CNC(=O)[C@H](Cc4cccnc4)N(C)C1=O)(C2)C3 [compound 113, cyclo(F-DabN3~3Pal-cBuA-V-Nle-NMe3Pal-amBCP)] (cyclo(F[Aha][3Pal][Cba]V[Nle][NMe3Pal][X1])) | > 50.8
CC(C)CC[C@@H]1NC(=O)[C@H](Cc2ccccc2F)NC(=O)[C@H](CC2CC2)NC(=O)[C@H](Cc2cncnc2)NC(=O)[C@H](C)N(C)C(=O)[C@H](Cc2ccccc2)OC(=O)C23CC(CNC(=O)[C@H](Cc4ccncc4F)N(C)C1=O)(C2)C3 [compound 337, cyclo(FLac-NMeA-PyrimAla-cPrA-Phe2F-hL-NMe4Pal2F-amBCP)] (cyclo([Ala(cPr)][Phe(2-F)][hLeu][X45][X1][PhLac][NMeA][Ala(pyrimidin-5-yl)])) | 3.35
CCCC[C@@H]1NC(=O)[C@H](Cc2cccnc2)NC(=O)[C@H](CCCF)N(C)C(=O)[C@H](Cc2ccccc2)OC(=O)C23CC(CNC(=O)[C@H](Cc4cccnc4)N(C)C(=O)[C@H](CCCC)NC(=O)[C@H](Cc4ccccc4F)NC1=O)(C2)C3 [compound 239, cyclo(FLac-NMeNvaF-3Pal-Nle-Phe2F-Nle-NMe3Pal-amBCP)] (cyclo([3Pal][Nle][Phe(2-F)][Nle][NMe3Pal][X1][PhLac][X35])) | 20.7
C[C@H](c1ccccc1)[C@H]1C(=O)NCC23CC(C2)(C3)C(=O)O[C@@H](Cc2ccccc2)C(=O)N(C)[C@@H](C)C(=O)N[C@@H](Cc2cncnc2)C(=O)N[C@@H](CC2CC2)C(=O)N[C@@H](Cc2ccccc2F)C(=O)N[C@@H](CCC(C)(C)F)C(=O)N1C [compound 341, cyclo(FLac-NMeA-PyrimAla-cPrA-Phe2F-hL3F-NMeRbMeF-amBCP)] (cyclo([Ala(cPr)][Phe(2-F)][X11][X19][X1][PhLac][NMeA][Ala(pyrimidin-5-yl)])) | > 50.8
CCCC[C@@H]1NC(=O)[C@H](Cc2ccc(C(F)(F)F)nc2)NC(=O)[C@H](CCN=[N+]=[N-])N(C)C(=O)[C@H](Cc2ccccc2)OC(=O)C23CC(CNC(=O)[C@H](Cc4cccnc4)N(C)C(=O)[C@H](CCCC)NC(=O)[C@H](Cc4ccccc4F)NC1=O)(C2)C3 [compound 241, cyclo(FLac-NMeDabN3-4CF33Pal-Nle-Phe2F-Nle-NMe3Pal-amBCP)] (cyclo([NMe3Pal][X1][PhLac][NMeAha][X23][Nle][Phe(2-F)][Nle])) | 6.12
CC(C)CC[C@@H]1NC(=O)[C@H](Cc2ccccc2F)NC(=O)[C@H](CC2CC2)NC(=O)[C@H](Cc2cncnc2)NC(=O)[C@H](C)N(C)C(=O)[C@H](Cc2ccccc2)OC(=O)C23CC(CNC(=O)[C@H](Cc4ccc(F)nc4)N(C)C1=O)(C2)C3 [compound 339, cyclo(FLac-NMeA-PyrimAla-cPrA-Phe2F-hL-NMe3Pal4F-amBCP)] (cyclo([Ala(cPr)][Phe(2-F)][hLeu][X8][X1][PhLac][NMeA][Ala(pyrimidin-5-yl)])) | 1.65
CCCC[C@@H]1NC(=O)[C@H](Cc2cncnc2)NC(=O)[C@H](CCCn2ccnc2)N(C)C(=O)[C@H](Cc2ccccc2)OC(=O)C23CC(CNC(=O)[C@H](Cc4ccccc4)N(C)C(=O)[C@H](CCCC)NC(=O)[C@H](Cc4ccccc4F)NC1=O)(C2)C3 (single isomer, unassigned) [compound 222, cyclo(FLac-NMeNvalmid-PyrimAla-Nle-Phe2F-Nle-NMeF-amBCP)] | > 50.8
C[C@H]1C(=O)N[C@@H](Cc2cncnc2)C(=O)N[C@@H](CC2CC2)C(=O)N[C@@H](Cc2ccccc2F)C(=O)N[C@@H](CCC(C)(C)F)C(=O)N(C)[C@@H](Cc2ccccc2)C(=O)NCC23CC(C2)(C3)C(=O)C[C@@H](Cc2ccccc2)C(=O)N1C [compound 273, cyclo(CPhe-NMeA-PyrimAla-cPrA-Phe2F-hL3F-NMeF-amBCP)] (cyclo([Ala(cPr)][Phe(2-F)][X11][NMeF][X34][NMeA][Ala(pyrimidin-5-yl)])) | 1.23
CCCCC[C@@H]1NC(=O)[C@H](Cc2ccc(OC)cc2)NC(=O)[C@H](CC2CCC2)NC(=O)[C@H](Cc2ccc(NC(=N)N)cc2)NC(=O)CN(CCCS(C)(=O)=O)C(=O)[C@H](Cc2ccccc2)NC(=O)CSC[C@@](C)(C(N)=O)NC(=O)[C@H](Cc2ccccc2)N(C)C1=O [compound 389, cyclo(F-Mspg-Phe4Gn-cBuA-TyrOMe-Ahp-NMeF-aMeCl-ClAc)] ({CH2CO}-F[X32][Phe(4-guanidino)][Cba]Y(Me)[Ahp(2)][NMeF][αMeC]-NH2; thioether N-8) | > 50.8
C[C@H]1C(=O)N[C@@H](Cc2cncnc2)C(=O)N[C@@H](CC2CCC2)C(=O)N[C@@H](Cc2ccccc2F)C(=O)N[C@@H](CCC(C)(F)F)C(=O)N(C)[C@@H](Cc2ccccc2)C(=O)NCC23CC(C2)(C3)C(=O)O[C@@H](Cc2ccccc2)C(=O)N1C [compound 224, cyclo(FLac-NMcA-PyrimAla-cBuA-Phe2F-Nle3F2-NMeF-amBCP)] (cyclo([Cba][Phe(2-F)][Nle(5,5-F2)][NMeF][X1][PhLac][NMeA][Ala(pyrimidin-5-yl)])) | 0.542
CCCC[C@@H]1NC(=O)[C@H](Cc2ccccc2F)NC(=O)[C@H](CCN=[N+]=[N-])NC(=O)[C@H](Cc2cccnc2)NC(=O)[C@H](CCCC)N(C)C(=O)[C@H](Cc2ccccc2)OC(=O)C23CC(CNC(=O)[C@H](Cc4cccnc4)N(C)C1=O)(C2)C3 [compound 243, cyclo(FLac-NMeNle-3Pal-DabN3-Phe2F-Nle-NMe3Pal-amBCP)] (cyclo([3Pal][Aha][Phe(2-F)][Nle][NMe3Pal][X1][PhLac][NMeNle])) | 21.7
CCCCC[C@@H]1NC(=O)[C@H](Cc2ccc(OC)cc2)NC(=O)[C@H](CC2CCC2)NC(=O)[C@H](Cc2ccc(N(C)C(=N)NC)cc2)NC(=O)[C@H](CCCNC)N(C)C(=O)[C@H](Cc2ccccc2)NC(=O)CSC[C@@](C)(C(N)=O)NC(=O)[C@H](Cc2ccc(C)nc2)N(C)C1=O [compound 395, cyclo(F-NMeOmMe-Phe4GnMeMe-cBuA-TyrOMe-Ahp-NMe3Pal4Me-aMeCl-ClAc)] ({CH2CO}-F[NMeOrn(Me)][X18][Cba]Y(Me)[Ahp(2)][NMe3Pal(6-Me)][αMeC]-NH2; thioether N-8) | > 50.8
CC(C)CC[C@@H]1NC(=O)[C@H](Cc2ccccc2F)NC(=O)[C@H](CC2CC2)NC(=O)[C@H](Cc2cncnc2)NC(=O)[C@H](C)N(C)C(=O)[C@H](Cc2ccccc2)OC(=O)C23CC(CNC(=O)[C@H](Cc4cnccc4F)N(C)C1=O)(C2)C3 [compound 338, cyclo(FLac-NMeA-PyrimAla-cPrA-Phe2F-hL-NMe3Pal6F-amBCP)] (cyclo([Ala(cPr)][Phe(2-F)][hLeu][X43][X1][PhLac][NMeA][Ala(pyrimidin-5-yl)])) | 1.86
Cc1cccc(C[C@H]2C(=O)NCC34CC(C3)(C4)C(=O)O[C@@H](Cc3ccccc3)C(=O)N(C)[C@@H](C)C(=O)N[C@@H](Cc3cncnc3)C(=O)N[C@@H](CC3CC3)C(=O)N[C@@H](Cc3ccccc3F)C(=O)N[C@@H](CCC(C)(F)F)C(=O)N2C)c1 [compound 275, cyclo(FLac-NMeA-PyrimAla-cPrA-Phe2F-Nle3F2-NMePhe3Me-amBCP)] (cyclo([Ala(cPr)][Phe(2-F)][Nle(5,5-F2)][NMePhe(3-Me)][X1][PhLac][NMeA][Ala(pyrimidin-5-yl)])) | 0.924
CCCC[C@@H]1NC(=O)[C@H](Cc2cccnc2F)NC(=O)[C@H](C)N(C)C(=O)[C@H](Cc2ccccc2)OC(=O)C23CC(CNC(=O)[C@H](Cc4cccnc4)N(C)C(=O)[C@H](CCCC)NC(=O)[C@H](Cc4ccccc4F)NC1=O)(C2)C3 [compound 117, cyclo(FLac-NMeA~3Pal2F-Nle-Phe2F-Nle-NMe3Pal-amBCP)] (cyclo([NMe3Pal][X1][PhLac][NMeA][X46][Nle][Phe(2-F)][Nle])) | 50.2
CC(C)CC[C@@H]1NC(=O)[C@H](Cc2ccccc2F)NC(=O)[C@H](CC2CCC2)NC(=O)[C@H](Cc2cncnc2)NC(=O)[C@H](C)N(C)C(=O)[C@H](Cc2ccccc2)OC(=O)C23CC(CNC(=O)[C@H](Cc4ccccc4)N(C)C1=O)(C2)C3 [compound 134, cyclo(FLac-NMeA-PyrimAla-cBuA-Phe2F-hL-NMeF-amBCP)] (cyclo([Cba][Phe(2-F)][hLeu][NMeF][X1][PhLac][NMeA][Ala(pyrimidin-5-yl)])) | 0.33
